Assay results from patent US12208080B2, “Compositions and methods for modulation of extracellular vesicle release and treatment of neurological disorders” (GEORGE MASON RESEARCH FOUNDATION, INC., priority 2018, dated 2025).

Assays:
Format in all cases: cell-based
[1] = system: HIV-1 infected monocytes (U1); assay: RT-qPCR of EV-associated HIV-1 TAR and env RNA from U1 cells; conditions: 5 days; for reduction in TAR RNA within EVs: average from two replicates; for incorporation of TAR RNA into EVs / incorporation of env RNA into EVs: 1, 5, 20, 50 μM; for incorporation of TAR RNA into EVs: FIG. 3A; for incorporation of env RNA into EVs: FIG. 3B; for env RNA within EVs: FIG. 9C
[2] = system: HIV-1 infected monocytes (U1); assay: RT-qPCR of intracellular HIV-1 TAR and env RNA in U1 cells (viral transcription); conditions: for intracellular TAR RNA (HIV-1 transcription) / intracellular env RNA (HIV-1 transcription): 1, 5, 20, 50 μM, 5 days, FIG. 4A; for intracellular TAR RNA / intracellular env RNA: CBD 1, 5, 10 μM, THC 1, 5, 10 μg/mL every day for 5 days, FIG. 15A
Protocol: HIV-1 infected monocytes (U1) were treated with CBD (1, 5, 20, and 50 μM) or THC (1, 5, 20, and 50 μM) for 5 days. Total RNA was isolated from cell pellets and analyzed by RT-qpCR for TAR RNA and env RNA. Student's t-test was used to determine significance (***=p<0.001, and**=p<0.01).
FIGS. 15A-15C are graphs and gels showing cannabidiols lower intracellular viral transcription and downstream viral products. U1 cells (1×10^6) were treated with a titration of CBD (1, 5, 10 μM) and THC (1, 5, 10 μg/mL) every day for 5 days. A) Intracellular RNA was isolated and analyzed through RT-qPCR for HIV-1 viral transcripts TAR and env. Each bar represents an average of three independent replicates. B) U1 cells (2×10^6) were treated with a titration of CBD (1, 5, 10 μM) every day for 5 days. Cells pellets were lysed, run through SDS-PAGE, and western blotted for (p-)/NF-κB, autophagosomal markers (p63, LC3), EV biogenesis marker VPS4, viral markers (gp120, Nef, p24), and Actin. C) U1 cells (5×10^6) were treated±CBD (10 μM) and Flavopiridol hydrochloride (50 nM; indicated as Flavo) and incubated for the following time points: 0 minutes, 2 hours and 6 hours. Cells were cross-linked with 1% formaldehyde solution and ChIP-ed for IgG and Pol II. ChIP DNA samples were analyzed via qPCR for TAR and env. Student's t-test was used for statistical analysis, where *p-value≤0.05; **p-value≤0.01, ***p-value≤0.001.
To determine if the observed reduction in EV-associated viral RNA was a result of a decrease in HIV-1 transcription rather than an alteration in the packaging of these viral RNAs into EVs, intracellular RNA was analyzed to assess for changes HIV-1 transcription. […] The differences in inhibition of short transcripts imply targeting at different stages of transcription with CBD inhibiting transcription initiation and THC inhibiting transcription elongation. These differences in transcriptional regulation can be further analyzed using a three-state L TR mathematical model to depict changes in viral RNA and protein production over extended periods of time (FIG. 4B).
For the isolation of total RNA, cells were harvested, washed once in 1×PBS without calcium or magnesium and resuspended in 50 μL of 1×PBS. For the isolation of total RNA from EVs, Nanotrap particles were incubated and harvested as described above, then resuspended in 50 μL of 1×PBS without calcium or magnesium. Total RNA was isolated from cell pellets and NT80/82 pellets bound with EVs using Trizol Reagent (Invitrogen) as described by the manufacturer's protocol. cDNA was generated using GoScript Reverse Transcription Systems (Promega) using Envelope Reverse: (5′-TGGGATAAGGGTCTGAAACG-3′ (SEQ ID NO:1); Tm=58° C.), and TAR Reverse: (5′-CAACAGACGGGCACACACTAC-3′ (SEQ ID NO:2), Tm=58° C.) primers. Serial dilutions of DNA from a CEM T-cell line containing a single copy of HIV-1 LAV provirus per cell (8E5 cells) were used as the quantitative standards. cDNA samples (2 μL/well) were plated into a Master Mix (18 μL/well) containing IQ Supermix (Bio-Rad), TAR Forward Primer (5′-GGTCTCTCTGGTTAGACCAGATCTG-3′ (SEQ ID NO:3)), TAR Reverse Primer (5′-CAACAGACGGGCACACACTAC-3′ (SEQ ID NO:4)), and TAR Probe (5′56-FAM-AG CCTCAATAAAGCTTGCCTTGAGTGCTTC-36-TAMSp-3′ (SEQ ID NO:5)). RT-qPCR conditions were as follows: one cycle for 2 min at 95° C. followed by 41 cycles of 95° C. for 15 s and 58° C. for 40 s. Reactions were performed in triplicate using the BioRad CFX96 Real Time System. Quantitation was determined using cycle threshold (Ct) values relative to the 8E5 standard curve using the BioRad CFX Manager Software. Analysis of generated raw data was analyzed using Microsoft Excel 2016.
Therefore, U1 monocytes were treated with a titration of CBD (1, 5, 10 μM) and THC (1, 5, 10 μg/mL) every day for 5 days. Total RNA was isolated from the harvested cell pellets followed by RT-qPCR analysis of 3 independent replicates for TAR and env RNAs.

[3] = system: HIV-1 infected monocytes (U1); assay: Western blot/densitometry of EV-associated proteins (NT80/82-enriched supernatant) from U1 cells; conditions: for CD81 (EV marker) in EVs / EV-associated Nef / EV-associated gp120: 1, 5, 20, 50 μM, FIG. 2C; for EV CD81 level / EV-associated Nef (30 kDa) / EV-associated myristoylated Nef dimer (70 kDa): CBD 1, 5, 10 μM, THC 1, 5, 10 μg/mL, FIG. 9A; for increase in EV-associated gp160 (densitometry): maximum, CBD lane 4 (10 μM), THC lane 7 (10 μg/mL)
[4] = system: HIV-1 infected U1 monocytic cells; assay: MTT cell viability assay; conditions: CBD 1, 5, 10 μM, THC 1, 5, 10 μg/ml, 5 days, FIG. 7
Protocol: FIG. 7 is a graph showing cell viability analysis of cannabidiol components on HIV-1 infected monocytes. HIV-1 infected U1 monocytic cells (1×10^6) were treated with CBD (green bars) at 1, 5, 10 and 50 μM) or THC (blue bars) at 1, 5, 10 and 50 μg/mL) every day for 5 days. Cell viability was determined using the MTT assay. Student's t-test was used for statistical analysis, where n.s is not significant, *p-value≤0.05; **p-value≤0.01, ***p-value≤0.001.
Cells were cultured in RPMI with 10% exosome-free FBS at 10^6 cells per well in 6 well plates. Cells were treated with 0.005% ethanol (control), CBD (1, 5 10, 50 μm) and THC (1, 5, 10, 50 μg/mL) once per day for 5 days. The MTT assay was used to measure cell death according to manufacturer's protocol (Sigma). After incubating with MTT solution for 2 h, the culture medium was aspirated and 1 mL of MTT solvent was added to each well. Cell viability was determined by the formation of formazan crystal and measured by absorbance at 590 nm and 620 nm, as previously described (Cotto et al., 2018, Cocaine and HIV-1 Tat Disrupt Cholesterol Homeostasis in Astrocytes: Implications for HIV-Associated Neurocognitive Disorders in Cocaine User Patients. Glia, 66(4), 889-902).
Supernatants were harvested and analyzed using ZetaView NTA.

[5] = CBD 1, 5, 10 μM, THC 1, 5, 10 μg/mL
[6] = 10 μM every day for 5 days, FIG. 15A lane 4

SMILES | incorporation of TAR RNA into EVs [1] | incorporation of env RNA into EVs [1] | env RNA within EVs [1, 5] | intracellular TAR RNA (HIV-1 transcription) [2] | intracellular env RNA (HIV-1 transcription) [2] | intracellular TAR RNA [2] | intracellular env RNA [2] | CD81 (EV marker) in EVs ([3]; U1, 5 days) | EV-associated Nef ([3]; U1, 5 days) | EV-associated gp120 ([3]; U1, 5 days) | EV CD81 level ([3]; U1, 5 days) | EV-associated Nef (30 kDa) ([3]; U1, 5 days) | EV-associated myristoylated Nef dimer (70 kDa) ([3]; U1, 5 days) | increase in EV-associated gp160 (densitometry) [3] | cell viability [4] | also measured
C=C(C)[C@@H]1CCC(C)=C[C@H]1c1c(O)cc(CCCCC)cc1O [CBD, 2-[1R-3-methyl-6R-(1-methylethenyl)-2-cyclohexen-1-yl]-5-pentyl-1,3-benzenediol] | statistically significant, dose-dependent decrease | statistically significant, dose-dependent decrease | reduction | decrease of both transcripts | decrease of both transcripts | dose-dependent decrease | dose-dependent decrease | reduction in CD81 | dose-dependent decrease | dose-dependent decrease | decreased | dose-dependent decrease | dose-dependent decrease | up to 125% | no effects on cell viability | reduction in TAR RNA within EVs ([1]; 5 μM, FIG. 9B): 55%; reduction in TAR RNA within EVs ([1]; 10 μM, FIG. 9B): 86%; dose-dependent decrease in EV-associated TAR RNA ([1]; CBD 1, 5, 10 μM, THC 1, 5, 10 μg/mL, FIG. 9B): dose-dependent decrease; decrease in intracellular TAR RNA compared to untreated control [2, 6]: 95%; decrease in intracellular env RNA compared to untreated control [2, 6]: 96%; reduction in EV-associated gp120 (densitometry) ([3]; U1, CBD 1, 5, 10 μM (lanes 2-4), 5 days): 39-58%; reduction in EV CD81 expression (densitometry) ([3]; U1, low titer CBD (lane 2, 1 μM), 5 days, FIG. 10A): 80%; decrease in EV-associated Nef (30 kDa), densitometry ([3]; greatest reduction, lane 3 (CBD 5 μM), FIG. 10): up to 79%
CCCCCc1cc(O)c2c(c1)OC(C)(C)[C@@H]1CCC(C)=C[C@@H]21 [THC, Δ9-tetrahydrocannabinol] | statistically significant, dose-dependent decrease | statistically significant, dose-dependent decrease | reduction | only resulting in a decrease in the env RNA | decrease in the env RNA | not TAR RNA | only treatment with the highest concentration of THC resulted in a significant decrease | reduction in CD81 | dose-dependent decrease | dose-dependent decrease | decrease in CD81 | dose-dependent decrease | dose-dependent decrease | ≤ 57% | no effects on cell viability | decrease in EV-associated myristoylated Nef dimer (70 kDa), densitometry ([3]; greatest reduction, lane 7 (THC 10 μg/mL), FIG. 10): up to 37%
